# How the values were obtained:
# [1] = molecular target: Vascular endothelial growth factor receptor 2 (Mus musculus, UniProt P35918); experiment: Inhibitory activity against VEGFR2
# [2] = molecular target: Platelet-derived growth factor receptor beta (Mus musculus, UniProt P05622); experiment: Inhibitory activity against PDGFRbeta
# [3] = molecular target: Fibroblast growth factor receptor 1 (Homo sapiens, UniProt P11362); experiment: Inhibitory activity against FGFR1
# HMEC = experiment: Activity against HMVEC; assay type: functional, cell-based; conditions: Homo sapiens
# [4] = Oral bioavailability in mice; assay type: ADME, organism-based; conditions: mouse, in vivo
# [5] = Clearance in mice; assay type: ADME, organism-based; conditions: mouse, in vivo
# [6] = Half life in mice at 5 mg/kg, iv; assay type: ADME, organism-based; set-up: dose 5 mg/kg, route intravenous; conditions: mouse, in vivo
# [7] = Half life in mice at 20 mg/kg, po; assay type: ADME, organism-based; set-up: dose 20 mg/kg, route oral; conditions: mouse, in vivo
# [8] = molecular target: Vascular endothelial growth factor receptor 1 (Homo sapiens, UniProt P17948)
# Chain of Vascular endothelial growth factor receptor 1 (P17948 whole entry): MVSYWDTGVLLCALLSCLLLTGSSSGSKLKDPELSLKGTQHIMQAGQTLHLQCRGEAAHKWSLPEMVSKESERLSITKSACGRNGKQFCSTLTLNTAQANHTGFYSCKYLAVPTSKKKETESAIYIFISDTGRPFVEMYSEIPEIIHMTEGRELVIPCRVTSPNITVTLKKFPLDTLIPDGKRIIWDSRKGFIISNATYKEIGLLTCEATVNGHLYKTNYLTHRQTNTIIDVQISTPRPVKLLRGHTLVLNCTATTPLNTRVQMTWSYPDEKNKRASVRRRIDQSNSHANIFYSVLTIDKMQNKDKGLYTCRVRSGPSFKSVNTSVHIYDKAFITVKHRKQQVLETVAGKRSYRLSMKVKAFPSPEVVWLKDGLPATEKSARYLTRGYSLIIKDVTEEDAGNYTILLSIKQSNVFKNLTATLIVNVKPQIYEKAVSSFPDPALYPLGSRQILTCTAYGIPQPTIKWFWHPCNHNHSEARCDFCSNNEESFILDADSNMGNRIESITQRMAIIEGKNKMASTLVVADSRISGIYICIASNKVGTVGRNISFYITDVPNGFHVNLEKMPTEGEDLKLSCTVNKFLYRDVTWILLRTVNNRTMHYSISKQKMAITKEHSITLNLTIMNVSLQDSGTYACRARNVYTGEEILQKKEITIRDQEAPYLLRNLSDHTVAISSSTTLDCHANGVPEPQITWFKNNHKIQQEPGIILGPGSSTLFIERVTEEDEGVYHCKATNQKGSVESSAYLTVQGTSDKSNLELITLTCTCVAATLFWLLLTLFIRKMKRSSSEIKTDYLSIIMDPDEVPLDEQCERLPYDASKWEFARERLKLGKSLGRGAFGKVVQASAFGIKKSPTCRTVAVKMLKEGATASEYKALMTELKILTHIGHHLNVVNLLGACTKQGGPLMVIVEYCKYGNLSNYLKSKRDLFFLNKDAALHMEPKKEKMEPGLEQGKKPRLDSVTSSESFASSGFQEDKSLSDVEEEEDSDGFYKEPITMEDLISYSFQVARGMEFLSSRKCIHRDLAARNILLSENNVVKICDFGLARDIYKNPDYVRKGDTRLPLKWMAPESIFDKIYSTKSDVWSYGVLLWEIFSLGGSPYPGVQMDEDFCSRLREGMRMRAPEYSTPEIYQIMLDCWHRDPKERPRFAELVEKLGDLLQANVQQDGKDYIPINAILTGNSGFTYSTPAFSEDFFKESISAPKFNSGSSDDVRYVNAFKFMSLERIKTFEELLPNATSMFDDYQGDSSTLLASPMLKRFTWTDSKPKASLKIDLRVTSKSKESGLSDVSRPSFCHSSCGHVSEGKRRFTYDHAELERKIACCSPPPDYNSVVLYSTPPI
# Description: Inhibitory activity against VEGFR1
# Chain of Platelet-derived growth factor receptor beta (P05622 whole entry): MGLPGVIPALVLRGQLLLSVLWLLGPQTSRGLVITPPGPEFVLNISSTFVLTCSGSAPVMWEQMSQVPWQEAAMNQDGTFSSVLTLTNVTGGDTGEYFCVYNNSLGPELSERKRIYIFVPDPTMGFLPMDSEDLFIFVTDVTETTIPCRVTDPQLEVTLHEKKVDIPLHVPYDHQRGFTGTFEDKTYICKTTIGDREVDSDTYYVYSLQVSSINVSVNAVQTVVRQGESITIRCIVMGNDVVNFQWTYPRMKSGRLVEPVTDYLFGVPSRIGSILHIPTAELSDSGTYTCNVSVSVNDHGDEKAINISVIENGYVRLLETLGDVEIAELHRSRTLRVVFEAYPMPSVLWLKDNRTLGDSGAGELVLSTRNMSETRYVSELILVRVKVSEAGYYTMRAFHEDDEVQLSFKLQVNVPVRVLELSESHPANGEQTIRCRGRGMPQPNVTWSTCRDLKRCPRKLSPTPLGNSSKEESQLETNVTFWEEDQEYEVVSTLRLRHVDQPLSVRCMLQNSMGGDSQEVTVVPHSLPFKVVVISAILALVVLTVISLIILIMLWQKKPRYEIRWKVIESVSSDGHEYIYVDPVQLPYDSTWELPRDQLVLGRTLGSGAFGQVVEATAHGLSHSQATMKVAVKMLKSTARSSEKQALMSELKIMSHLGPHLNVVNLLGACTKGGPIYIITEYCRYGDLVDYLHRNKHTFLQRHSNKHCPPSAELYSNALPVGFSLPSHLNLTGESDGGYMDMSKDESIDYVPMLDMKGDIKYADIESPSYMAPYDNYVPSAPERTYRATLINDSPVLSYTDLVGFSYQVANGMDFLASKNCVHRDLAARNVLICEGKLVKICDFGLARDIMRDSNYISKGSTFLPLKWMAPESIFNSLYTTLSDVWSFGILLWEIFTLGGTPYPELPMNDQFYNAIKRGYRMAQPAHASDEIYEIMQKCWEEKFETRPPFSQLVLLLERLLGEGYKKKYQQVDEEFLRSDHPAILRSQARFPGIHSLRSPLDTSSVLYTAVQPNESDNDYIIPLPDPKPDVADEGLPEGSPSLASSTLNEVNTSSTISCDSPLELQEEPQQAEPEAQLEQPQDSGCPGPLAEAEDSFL
# Chain of Fibroblast growth factor receptor 1 (P11362 whole entry): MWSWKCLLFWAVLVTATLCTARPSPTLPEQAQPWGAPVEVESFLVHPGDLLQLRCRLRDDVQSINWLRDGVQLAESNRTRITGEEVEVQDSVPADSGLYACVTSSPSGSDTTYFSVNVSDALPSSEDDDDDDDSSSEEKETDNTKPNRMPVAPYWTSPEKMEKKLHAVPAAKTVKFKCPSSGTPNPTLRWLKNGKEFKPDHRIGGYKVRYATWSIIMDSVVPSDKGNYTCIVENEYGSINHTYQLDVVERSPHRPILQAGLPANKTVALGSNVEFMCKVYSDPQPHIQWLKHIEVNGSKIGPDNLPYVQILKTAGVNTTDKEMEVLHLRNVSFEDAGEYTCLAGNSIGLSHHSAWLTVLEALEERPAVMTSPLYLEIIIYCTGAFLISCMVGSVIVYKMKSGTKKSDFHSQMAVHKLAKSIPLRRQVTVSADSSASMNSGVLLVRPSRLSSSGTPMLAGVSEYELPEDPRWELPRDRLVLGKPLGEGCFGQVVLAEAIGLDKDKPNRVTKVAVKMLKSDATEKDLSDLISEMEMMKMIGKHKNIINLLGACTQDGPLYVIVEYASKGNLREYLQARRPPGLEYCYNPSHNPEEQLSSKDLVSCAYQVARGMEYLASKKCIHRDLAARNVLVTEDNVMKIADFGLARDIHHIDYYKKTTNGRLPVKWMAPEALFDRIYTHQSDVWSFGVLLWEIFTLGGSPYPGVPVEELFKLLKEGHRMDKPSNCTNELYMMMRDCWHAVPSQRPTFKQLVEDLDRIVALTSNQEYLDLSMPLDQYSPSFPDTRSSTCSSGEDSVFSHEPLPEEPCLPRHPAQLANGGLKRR
# Chain of Vascular endothelial growth factor receptor 2 (P35918 whole entry): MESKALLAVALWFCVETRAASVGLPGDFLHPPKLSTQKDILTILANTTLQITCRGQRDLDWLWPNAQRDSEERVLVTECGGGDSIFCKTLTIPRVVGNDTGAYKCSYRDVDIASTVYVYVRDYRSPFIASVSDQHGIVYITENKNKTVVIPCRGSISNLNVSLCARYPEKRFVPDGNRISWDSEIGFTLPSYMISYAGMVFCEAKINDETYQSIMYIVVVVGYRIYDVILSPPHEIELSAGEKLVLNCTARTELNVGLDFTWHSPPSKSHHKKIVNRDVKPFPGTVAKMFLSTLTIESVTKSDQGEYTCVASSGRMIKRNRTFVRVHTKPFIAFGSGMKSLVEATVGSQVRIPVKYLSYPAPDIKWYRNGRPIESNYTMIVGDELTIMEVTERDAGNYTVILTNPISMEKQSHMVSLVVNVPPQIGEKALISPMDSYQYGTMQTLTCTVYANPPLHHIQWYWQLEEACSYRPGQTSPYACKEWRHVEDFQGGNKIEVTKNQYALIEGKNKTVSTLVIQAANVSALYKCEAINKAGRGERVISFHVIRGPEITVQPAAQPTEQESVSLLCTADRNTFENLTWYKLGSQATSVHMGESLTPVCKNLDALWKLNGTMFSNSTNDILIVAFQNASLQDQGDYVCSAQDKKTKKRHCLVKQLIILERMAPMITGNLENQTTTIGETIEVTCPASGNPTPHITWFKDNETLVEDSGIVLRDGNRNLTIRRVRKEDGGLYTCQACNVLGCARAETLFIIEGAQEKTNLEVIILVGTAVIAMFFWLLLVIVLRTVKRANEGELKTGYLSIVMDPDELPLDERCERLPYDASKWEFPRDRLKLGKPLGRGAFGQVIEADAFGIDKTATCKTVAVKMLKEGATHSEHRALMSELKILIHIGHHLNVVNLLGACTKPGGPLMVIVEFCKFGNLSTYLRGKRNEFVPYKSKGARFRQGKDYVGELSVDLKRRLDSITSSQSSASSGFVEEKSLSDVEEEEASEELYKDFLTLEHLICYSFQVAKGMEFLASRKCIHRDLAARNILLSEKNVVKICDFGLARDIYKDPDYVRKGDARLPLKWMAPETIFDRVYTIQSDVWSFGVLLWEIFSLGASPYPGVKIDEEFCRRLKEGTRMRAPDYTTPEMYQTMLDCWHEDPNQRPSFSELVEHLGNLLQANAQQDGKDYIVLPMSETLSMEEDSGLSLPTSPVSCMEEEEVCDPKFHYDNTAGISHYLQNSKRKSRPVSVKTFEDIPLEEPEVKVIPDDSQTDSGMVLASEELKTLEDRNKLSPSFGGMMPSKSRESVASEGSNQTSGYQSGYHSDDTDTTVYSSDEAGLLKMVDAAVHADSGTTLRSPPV
IC50 [1],IC50 [2],IC50 [3],EC50 (HMEC),bioavailability [4],clearance [5],half-life [6],half-life [7],IC50 [8],Structure (SMILES)
3 nM,57 nM,10 nM,53 nM,,,,,,Nc1c(-c2nc3ccccc3[nH]2)c(O)nc2cnccc12
8 nM,48 nM,47 nM,34 nM,84%,61 mL/min/kg,1.08 h,0.95 h,,Nc1c(-c2nc3ccc(N4CCOCC4)nc3[nH]2)c(=O)[nH]c2ccccc12
13 nM,27 nM,8 nM,20 nM,,,,,,CN1CCN(c2ccc3[nH]c(-c4c(N)c5ccccc5[nH]c4=O)nc3c2)CC1
3000 nM,6530 nM,5000 nM,> 10000 nM,,,,,,Oc1nc2ncccc2c(O)c1-c1nc2ccccc2[nH]1
24 nM,30 nM,10 nM,51 nM,,,,,,CN1CCN(c2ccc3nc(-c4c(N)c5ccccc5[nH]c4=O)[nH]c3n2)CC1
109 nM,691 nM,348 nM,850 nM,,,,,,Nc1c(-c2nc3ccccc3[nH]2)c(O)nc2sccc12
25 nM,102 nM,44 nM,,,,,,28 nM,Nc1c(-c2nc3ccccc3[nH]2)c(=O)[nH]c2ccccc12
114 nM,395 nM,215 nM,428 nM,,,,,162 nM,O=c1[nH]c2ccccc2c(O)c1-c1nc2ccccc2[nH]1
4 nM,38 nM,21 nM,40 nM,100%,13 mL/min/kg,1.18 h,3.6 h,,Nc1c(-c2nc3cc(N4CCOCC4)ccc3[nH]2)c(=O)[nH]c2ccccc12

# The next lines start with the compound.
Structure (SMILES),IC50 [1],IC50 [2],IC50 [3],EC50 (HMEC),bioavailability [4],clearance [5],half-life [6],half-life [7],IC50 [8]
CN1CCN(c2ccc3[nH]c(-c4c(O)nc5cccnc5c4N)nc3c2)CC1,33 nM,55 nM,43 nM,89 nM,,,,,
Nc1c2cnnc-2[nH]c(O)c1-c1nc2ccccc2[nH]1,507 nM,326 nM,3170 nM,3820 nM,,,,,
Nc1c2ncnc-2[nH]c(O)c1-c1nc2ccccc2[nH]1,552 nM,154 nM,2660 nM,3680 nM,,,,,
Nc1c(-c2nc3cccnc3[nH]2)c(=O)[nH]c2ccccc12,16 nM,25 nM,51 nM,88 nM,,,,,
CN1CCN(c2ccc3[nH]c(-c4c(O)nc5cnccc5c4N)nc3c2)CC1,1 nM,43 nM,4 nM,16 nM,,,,,
Oc1nc2cnccc2c(O)c1-c1nc2ccccc2[nH]1,168 nM,1590 nM,576 nM,2200 nM,,,,,
Cn1ncc2c(N)c(-c3nc4ccccc4[nH]3)c(O)nc21,3000 nM,575 nM,3000 nM,321 nM,,,,,
Nc1c(-c2nc3cccnc3[nH]2)c(=O)[nH]c2cnccc12,12 nM,49 nM,30 nM,77 nM,,,,,
Nc1c(-c2nc3cc(N4CCOCC4)ccc3[nH]2)c(O)nc2ccncc12,57 nM,18 nM,100 nM,768 nM,,,,,
Nc1c(-c2nc3cc(N4CCOCC4)ccc3[nH]2)c(O)nc2cnccc12,2 nM,64 nM,10 nM,84 nM,87%,24 mL/min/kg,0.433 h,1.3 h,
